For data set [1] the following is noted: The Merck index, 10th edition; cited from earlier work.
Data set [2] is described as follows: Aqueous solubility assay, Protocol A, nephelometry method. In kind it is physicochemical. The settings on record: PBS with 5% DMSO, aqueous with cosolvent or surfactant or cyclodextrin, kinetic from dmso stock, PBS pH 7.4, 5% DMSO. The method, then:
Aqueous solubility of compounds was determined by nephelometry or by the shake-flask method as follows:
Protocol A, nephelometry method:
Solubility of compounds was measured in PBS (pH 7.4), 5% DMSO at 23° C. Nepheloskan Ascent (Thermo Electron Corporation) nephelometer was used for measurement of light scattering. Tested compounds were dissolved in DMSO to 10 mM. Prior to measurement the compounds were further diluted with PBS in the wells to final compound concentrations of 100, 70, 50, 35, 25, 17, 12 and <10 μg/ml.
The plates were incubated at room temperature for 24 hours to reach equilibrium and the scattered light was measured. Assay validation: Aqueous solubility of acetylsalicylic acid was determined to validate the assay.
The following compounds of Table 2 exemplify such solubility with “−−” meaning solubility<2 μM, “+” meaning 2 μM solubility 100 μM and “++” meaning solubility

Data set [3] in a line: Aqueous solubility assay, Protocol B, shake-flask method. In kind it is physicochemical. The settings on record: aqueous buffer, 10 mM PBS buffer pH 7.4, 1% MeOH, room temperature, read-out: Aqueous solubility pH 7.4 (μM) (±standard deviation), shake-flask method. How it is done: Protocol B, shake-flask method:
Sample preparation: Sample and standard solution preparation is performed by mixing equal volumes of acetonitrile containing the internal standard (1 μM final concentration) with sample and calibration standard solutions (100 μl). After vigorously shaking (10 seconds) the samples are centrifuged (6000 g) for 5 minutes at 20° C. Aliquots of the particle-free supernatants are transferred to 200 μl sample vials and subsequently subjected to LC-MS/MS. Assay procedure: Test concentration was 100 μM in 10 mM PBS buffer pH 7.4 with a final MeOH concentration of 1%. The volume of the incubation solution was 500 μl. Depending on each compound's solubility in MeOH, the stock concentration and the incubation concentration was adapted. The test solutions in quadruplicates were shaken at 300 rpm over a 20 hours period at room temperature, followed by centrifugation at 20000 g for 30 minutes to separate the solid phase. 100 μl of particle free sample are added to 100 μl acetonitrile containing the internal standard. The aqueous solubility of the compounds was determined by measuring the concentration of the PBS buffer supernatant by HPLC-MS/MS.

Another data set is described as follows: PAMPA permeability assay. The following applies: % of compound found in the receiver compartment after 16 hours; PBS pH 7.4, 5% DMSO, 23° C. Type of data set: in vitro ADME. The method, then: Artificial membrane permeability was determined as follows: Tested compounds were dissolved to 10 mM in 100% DMSO. Permeability of compounds was measured in PBS (pH 7.4), 5% DMSO at 23° C. Safire (Tecan) plate reader was used for measurement the UV/Vis absorption. Protocol: Dilute stocks of tested compounds and controls with PBS to 1.67 mM and mix well by pipeitting, add 280 μl of PBS, 5% DMSO to acceptor plate, add 5 μl of 2% L-α-Phosphatidylcholine suspension in dodecane to the membrane of donor plate, Immediately add 98 μl of PBS to donor plate and make the sandwich with acceptor plate. Add 42 μl of tested compounds and controls dilutions to […], cover the plate, place into camera and incubate for 16 hours. Make the equilibrium plate, add 225 μl of PBS, 3,7% DMSO and 25 μl of tested compounds and controls dilutions to UV plate. After 16 hours pull the donor plate out and transfer 250 μl from acceptor plate to UV plate. Scan UV plate on Safire (Tecan) plate reader from […]. Permeability is reported in % of compound found in the receiver compartment after the incubation period.
Background: In PAMPA a lipid-coated filter parts donor from acceptor wells.

Data set [4] is described as follows: Mouse microsomal stability assay. Type of data set: in vitro ADME. The settings on record: pH 7.4; mouse liver microsomes, 37° C. The method, then:
In vitro assays were performed to evaluate the metabolic stability of test items in liver microsomes originating from mouse. Preparation of working standards of test items: Working solutions were prepared for each calibration level by appropriate dilution of the corresponding stock solution, depending on each compound's solubility in acetonitrile or acetonitrile/water. Calibration standards were prepared by spiking 196 μl standard matrix with 4 μl of the corresponding working solution. The standard matrix consists of 0.15 mg/ml of microsomal protein in phosphate buffer (100 mM pH 7.4), the final standard solutions contain 2% acetonitrile. The samples and standard solutions were extracted with ethyl acetate, isolation of the compounds was performed by addition of 600 μl ethyl acetate containing the internal standard (0.1 μM) to 200 μl sample and calibration standard. After vigorously shaking (10 minutes) and centrifugation (5000 g) the aqueous phase was separated by freezing in an acetone/dry ice bath and the organic phase is evaporated to dryness using a vacuum centrifuge. Samples were reconstituted in 200 μl acetonitrile/water mix (1:1 v/v) and subsequently subjected to LC-MS/MS. The incubation solution (180 μl) consisted of 90 μl of a microsomal suspension of 0.33 mg/ml of protein in phosphate buffer 100 mM pH 7.4 and 90 μl NADP-regenerating system. The reaction was initiated by the addition of 20 μl of test compound (in 20% acetonitrile) to the preincubated microsomes/buffer mix at 37° C. 200 μl samples were removed from the incubation after 0, 5, 10, and 30 minutes and processed for ethyl acetate extraction as described above. Negative controls using boiled microsomes (boiling water bath, 25 minutes) without regenerating system were run in parallel. The amount of compound in the samples is expressed as percentage of remaining compound compared to time point zero (=100%). These percentages were plotted against the corresponding time points. Intrinsic clearance (CLint) and half-life (t1/2) estimates were determined using the rate of parent disappearance and following formula (1) and (2). (1) CLint=(−k)×V×fu. (2) t1/2=In2/−k. Where CLint=intrinsic clearance [μl/min/mg protein], t1/2=half life [min], k=slope from the linear regression of log [test compound] versus time plot [1/min]. V=6666.7; fu=unbound fraction in the blood. Applying this protocol gave microsomal stabilities for examples and reference compounds as listed below in Table 9: […]
For orientation: Liver microsomes are a subcellular fraction often used to study metabolism.

The structures appear in SMILES notation. ≈ marks a conversion by molar mass, not a printed value. Like-named read-outs stand apart in the source and are kept apart here.

The term solubility denotes how much of the substance goes into solution per volume. `CC(=O)Oc1ccccc1C(=O)O` [acetylsalicylic acid, reference compound]: the “Aqueous solubility, reported literature value” in data set [1] is given as “at least 2,17 mg/ml”. Also, in data set [2] (23 °C, at the day of experiment, read-out: Aqueous solubility (assay validation)), the solubility at 24 h was greater than 100 µg/mL.
A word on the half-life: it is how long it takes for the measured level to halve. Low readings indicate fast loss, high ones slow loss. By microsomal CLint is commonly meant the capacity of the preparation to metabolise the compound, expressed as a volume cleared per time. High values mean faster metabolism, low ones greater metabolic stability. Consider `CC(C)c1onc(-c2c(Cl)cccc2Cl)c1CCc1ccc(Oc2ccc(C(=O)O)cc2)cc1` [Compound A, reference compound], for which, in data set [3], the solubility at 20 h turned out to be 72.4 µM (≈ 35.9 µg/mL). The “PAMPA Permeability” value in “PAMPA permeability assay” was found to be 32%. In data set [4], this molecule yielded a half-life of 22 min and an intrinsic clearance (microsomal CLint) of 207 µL/min/mg. Moreover, the solubility at 24 h in data set [2] (23° C., 24 hours, read-out: Aqueous solubility pH 7.4) fell in the range of 2 to 100 µM.

The record behind these values is patent publication US20100184809A1, “Heterocyclic FXR Binding Compounds” (PHENEX PHARMACEUTICALS AG, priority 2006, published 2010).
